# Measurements: patent US8357694B2, “Substituted 5,6-dihydro-6-phenylbenzo[F]isoquinolin-2-amine compounds” (ArQule, Inc., priority 2008, dated 2013)
# Where a name gives a salt, the structure may show the parent alone.
row,Compound,melting point
1,"CN(CCc1ccccc1)CCc1ccc(Nc2ncc3c(n2)-c2ccccc2[C@H](c2cccc(Br)c2)C3)cc1 (as salt: HCl) [Example 81, (S)-6-(3-bromophenyl)-N-(4-(2-(methyl(phenethyl)amino)ethyl)phenyl)-5,6-dihydrobenzo[h]quinazolin-2-amine]",146 to 153 °C
2,"Brc1ccc([C@@H]2Cc3cnc(Nc4ccc(CCN5CCCCC5)cc4)nc3-c3ccccc32)cc1 (as salt: hydrochloride) [Example 103, (S)-6-(4-bromophenyl)-N-(4-(2-(piperidin-1-yl)ethyl)phenyl)-5,6-dihydrobenzo[h]quinazolin-2-amine hydrochloride salt]",205 to 210 °C
3,"CCCCN(C)CCc1ccc(Nc2ncc3c(n2)-c2ccccc2[C@H](c2cccc(Br)c2)C3)cc1 (as salt: hydrochloride) [Example 80, (S)-6-(3-bromophenyl)-N-(4-(2-(butyl(methyl)amino)ethyl)phenyl)-5,6-dihydrobenzo[h]quinazolin-2-amine hydrochloride]",146 to 153 °C
4,"CS(=O)(=O)OCCc1cc(Nc2ncc3c(n2)-c2ccccc2[C@H](c2ccccc2F)C3)ccc1F [Example 170, (R)-2-fluoro-5-(6-(2-fluorophenyl)-5,6-dihydrobenzo[h]quinazolin-2-ylamino)phenethyl methanesulfonate]",99 to 100 °C
5,OCCc1ccc(Nc2ncc3c(n2)-c2ccccc2C(c2ccc(Cl)c(Cl)c2)C3)cc1 (stereo not shown),94 to 96 °C
6,"CN(CCc1ccccc1)CCc1ccc(Nc2ncc3c(n2)-c2ccccc2[C@H](c2ccc(Cl)c(Cl)c2)C3)cc1 (as salt: hydrochloride) [Example 104, (S)-6-(3,4-dichlorophenyl)-N-(4-(2-(methyl(phenethyl)amino)ethyl)phenyl)-5,6-dihydrobenzo[h]quinazolin-2-amine hydrochloride salt]",170 to 175 °C
7,"Nc1ncc2c(n1)-c1ccc(-c3ccccc3)cc1C(c1ccc(Cl)c(Cl)c1)C2 (stereo not shown) [Example 21, 6-(3,4-dichlorophenyl)-8-phenyl-5,6-dihydrobenzo[h]quinazolin-2-amine]",186 to 187 °C
8,"CCCCN(C)CCc1cccc(Nc2ncc3c(n2)-c2ccccc2[C@H](c2ccc(Cl)c(Cl)c2)C3)c1 (as salt: hydrochloride) [Example 168, (S)—N-(3-(2-(butyl(methyl)amino)ethyl)phenyl)-6-(3,4-dichlorophenyl)-5,6-dihydrobenzo[h]quinazolin-2-amine hydrochloride]",162 to 166 °C
9,"CC(O)CN(CCc1ccc(Nc2ncc3c(n2)-c2ccccc2C(c2cccc(Br)c2)C3)cc1)Cc1ccccc1 (stereo not shown) [Example 39, 1-(benzyl(4-(6-(3-bromophenyl)-5,6-dihydrobenzo[h]quinazolin-2-ylamino)phenethyl)amino)propan-2-ol]",90 to 92 °C
10,"CN1CCN(CCc2ccc(Nc3ncc4c(n3)-c3ccccc3C(c3ccc(Cl)c(Cl)c3)C4)cc2)CC1 (stereo not shown) [Example 52, 6-(3,4-dichlorophenyl)-N-(4-(2-(4-methylpiperazin-1-yl)ethyl)phenyl)-5,6-dihydrobenzo[h]quinazolin-2-amine]",119 to 121 °C
11,"COCCNCCc1ccc(Nc2ncc3c(n2)-c2ccccc2[C@H](c2ccccc2F)C3)cc1 (as salt: hydrochloride) [Example 94, (R)-6-(2-fluorophenyl)-N-(4-(2-(2-methoxyethylamino)ethyl)phenyl)-5,6-dihydrobenzo[h]quinazolin-2-amine hydrochloride salt]",198 to 201 °C
12,"Nc1ncc2c(n1)-c1ccccc1[C@H](c1ccccc1F)C2 (as salt: hydrochloride) [Example 24, (R)-6-(2-fluorophenyl)-5,6-dihydrobenzo[h]quinazolin-2-amine]",154 to 155 °C
13,"CN(C)CCCNc1ncc2c(n1)-c1ccccc1[C@@H](c1ccc(Cl)c(Cl)c1)C2 [Example 12, (R)—N^1-(6-(3,4-dichlorophenyl)-5,6-dihydrobenzo[h]quinazolin-2-yl)-N^3,N^3-dimethylpropane-1,3-diamine]",59 to 62 °C
